Measurements from US10849904B2, “Methods for treatment of retinal disease by photoreceptor gene expression modulation” (University of Washington, priority 2015, dated 2020).

Tested on: retinas from Rho^P23H mice at P12
Assay: P12 Rho^P23H retinal explants, rod degeneration (ONL nuclei, Gnb1)
Type: cell-based, mouse
Details: 1 μM, vs DMSO
Description: The effect of PR1 on Rho expression in adult rods might have potential as a way to slow the degeneration of these cells in dominant forms of retinitis pigmentosa, like Rho^P23H. In this disease, the affected individuals express a mutant form of rhodopsin that is likely inappropriately processed and ultimately leads to the death of the rods. […] The majority of rod cell death in the Rho^P23H transgenic line occurs between P14 and P21. Therefore, explants of retinas from Rho^P23H mice at P12 were made and treated the explants with 1 μM PR1 or DMSO (FIG. 9H). After 6 days in vitro, the retinas were processed for histology. The number of nuclei were counted in the ONL of each retina in the central region 100 μm from the optic nerve head. […] Gnb1 expression was also monitored as another measure of rod photoreceptor preservation because this is not directly affected by PR1 and thus serves as a surrogate for rod number. […]
RNA was isolated using TRIzol (Invitrogen) and cDNA was synthesized using the iScript cDNA synthesis kit (Bio-Rad) following an intervening DNase treatment with RQ1 RNase-free DNase (Promega). SSO Fast (Bio-Rad) was used for quantitative real-time PCR. For analysis, values were normalized to Gapdh and ΔΔCt between DMSO and compound-treated samples was expressed as percent of DMSO treated controls (100*2^ΔΔCt). […]

Cc1cc(C)cc(NC(=O)CCc2nc3sc4c(c3c(=O)[nH]2)CCCC4)c1 [PR1, N-(3,5-dimethylphenyl)-3-(4-oxo-5,6,7,8-tetrahydro-3H-[1]benzothiolo[2,3-d]pyrimidin-2-yl)propanamide]
number of rod photoreceptors (nuclei) in the ONL, 100 μm from the optic nerve head (6 days in vitro): nearly twice
Gnb1 expression (surrogate for rod number): significantly more Gnb1 expression
